3 compounds from ChEMBL document CHEMBL1201862, “PubChem BioAssay data set” (2004) can be followed below.

One may read the Ki as the equilibrium dissociation constant of an inhibitor or competing ligand from its target. As usually defined, the pKi is the negative decadic logarithm of the Ki, by convention in mol/L. The low end stands for a high Ki, the high end for a low Ki.

Holding throughout (format): functional
The target of assay [1] is Calcium/calmodulin-dependent protein kinase type 1 (Homo sapiens, UniProt Q14012).
Chain of Calcium/calmodulin-dependent protein kinase type 1 (Q14012 whole entry): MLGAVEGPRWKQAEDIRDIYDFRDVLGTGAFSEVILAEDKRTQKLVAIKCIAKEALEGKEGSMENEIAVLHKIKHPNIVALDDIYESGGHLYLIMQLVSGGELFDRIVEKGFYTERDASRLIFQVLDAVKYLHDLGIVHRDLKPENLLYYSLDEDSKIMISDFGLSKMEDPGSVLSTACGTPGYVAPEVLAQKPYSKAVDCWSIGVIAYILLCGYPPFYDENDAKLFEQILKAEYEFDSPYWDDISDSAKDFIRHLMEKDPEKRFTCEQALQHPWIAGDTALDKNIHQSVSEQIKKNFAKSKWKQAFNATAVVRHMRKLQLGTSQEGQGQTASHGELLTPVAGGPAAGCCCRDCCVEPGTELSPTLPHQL
Assay [2] deals with Dual specificity tyrosine-phosphorylation-regulated kinase 1A (Homo sapiens, UniProt Q13627).
Assay [3] addresses T1, Serine/threonine-protein kinase PLK4 (Homo sapiens, UniProt O00444).
T1 sequence (O00444 whole entry): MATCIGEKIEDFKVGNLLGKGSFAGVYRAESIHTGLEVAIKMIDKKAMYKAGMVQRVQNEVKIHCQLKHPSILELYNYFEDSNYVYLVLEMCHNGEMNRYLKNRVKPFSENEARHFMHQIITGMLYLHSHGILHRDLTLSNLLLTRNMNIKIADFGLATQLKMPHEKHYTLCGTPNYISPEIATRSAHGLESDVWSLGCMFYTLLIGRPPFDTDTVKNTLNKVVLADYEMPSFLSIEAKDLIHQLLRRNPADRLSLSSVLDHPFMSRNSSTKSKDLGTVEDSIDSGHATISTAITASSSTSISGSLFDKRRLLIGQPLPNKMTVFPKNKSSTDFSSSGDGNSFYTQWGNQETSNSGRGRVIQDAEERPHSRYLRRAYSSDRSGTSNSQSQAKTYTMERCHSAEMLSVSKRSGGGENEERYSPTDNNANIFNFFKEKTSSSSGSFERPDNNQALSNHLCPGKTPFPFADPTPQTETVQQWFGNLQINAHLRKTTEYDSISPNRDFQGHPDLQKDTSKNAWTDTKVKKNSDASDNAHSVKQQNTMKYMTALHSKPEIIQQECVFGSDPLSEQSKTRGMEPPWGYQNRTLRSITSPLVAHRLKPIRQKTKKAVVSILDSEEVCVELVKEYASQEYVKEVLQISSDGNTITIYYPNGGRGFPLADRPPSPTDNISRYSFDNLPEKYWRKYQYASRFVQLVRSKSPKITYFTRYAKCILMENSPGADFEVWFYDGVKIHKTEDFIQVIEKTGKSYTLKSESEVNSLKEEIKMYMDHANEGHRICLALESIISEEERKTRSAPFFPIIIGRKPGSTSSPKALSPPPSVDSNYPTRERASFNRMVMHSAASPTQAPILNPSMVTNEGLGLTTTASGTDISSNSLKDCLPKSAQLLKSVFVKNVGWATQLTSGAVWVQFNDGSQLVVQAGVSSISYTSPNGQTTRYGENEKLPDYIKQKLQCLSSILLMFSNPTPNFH

The target in assay [4] is Aurora kinase B (Homo sapiens, UniProt Q96GD4).
Chain of Aurora kinase B (Q96GD4 whole entry): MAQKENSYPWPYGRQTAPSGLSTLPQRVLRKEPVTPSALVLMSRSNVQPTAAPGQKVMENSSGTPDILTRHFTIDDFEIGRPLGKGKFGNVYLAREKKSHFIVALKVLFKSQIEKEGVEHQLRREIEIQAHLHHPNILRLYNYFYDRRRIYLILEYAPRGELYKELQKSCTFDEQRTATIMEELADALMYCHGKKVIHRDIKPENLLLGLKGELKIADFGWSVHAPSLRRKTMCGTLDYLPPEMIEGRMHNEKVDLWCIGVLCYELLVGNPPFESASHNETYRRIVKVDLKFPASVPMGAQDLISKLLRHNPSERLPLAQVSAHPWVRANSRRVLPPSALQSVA
For assay [5], the target named is MAP/microtubule affinity-regulating kinase 3 (Homo sapiens, UniProt P27448).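 Also: MARK3 affinity measured as one member of a kinome panel.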
Chain of MAP/microtubule affinity-regulating kinase 3 (P27448 whole entry): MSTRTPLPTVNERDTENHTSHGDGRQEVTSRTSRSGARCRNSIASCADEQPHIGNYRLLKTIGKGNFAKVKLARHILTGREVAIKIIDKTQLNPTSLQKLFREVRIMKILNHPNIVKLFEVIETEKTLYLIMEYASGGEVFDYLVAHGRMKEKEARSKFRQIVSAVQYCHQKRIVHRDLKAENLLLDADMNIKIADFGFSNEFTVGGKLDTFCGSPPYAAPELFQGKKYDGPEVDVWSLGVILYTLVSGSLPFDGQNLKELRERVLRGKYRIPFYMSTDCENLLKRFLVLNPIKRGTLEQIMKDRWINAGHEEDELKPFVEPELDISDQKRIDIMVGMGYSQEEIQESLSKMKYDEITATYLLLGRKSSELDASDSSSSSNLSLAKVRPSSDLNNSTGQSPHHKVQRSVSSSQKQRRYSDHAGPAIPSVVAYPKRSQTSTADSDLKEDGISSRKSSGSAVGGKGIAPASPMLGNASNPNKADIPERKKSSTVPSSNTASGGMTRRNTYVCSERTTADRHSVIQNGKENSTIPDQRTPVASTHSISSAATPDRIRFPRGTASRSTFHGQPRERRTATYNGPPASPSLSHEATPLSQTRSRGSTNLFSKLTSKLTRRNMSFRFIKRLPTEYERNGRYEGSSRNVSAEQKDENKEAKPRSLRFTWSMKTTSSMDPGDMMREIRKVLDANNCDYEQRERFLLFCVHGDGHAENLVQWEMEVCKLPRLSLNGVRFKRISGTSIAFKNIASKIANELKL
The target in assay [6] is cAMP-dependent protein kinase catalytic subunit alpha (Homo sapiens, UniProt P17612).
The target of assay [7] is T2, 3-phosphoinositide-dependent protein kinase 1 (Homo sapiens, UniProt O15530).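 Also: value comes from the Navigating the Kinome panel, PDPK1 member.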
T2 sequence (O15530 whole entry): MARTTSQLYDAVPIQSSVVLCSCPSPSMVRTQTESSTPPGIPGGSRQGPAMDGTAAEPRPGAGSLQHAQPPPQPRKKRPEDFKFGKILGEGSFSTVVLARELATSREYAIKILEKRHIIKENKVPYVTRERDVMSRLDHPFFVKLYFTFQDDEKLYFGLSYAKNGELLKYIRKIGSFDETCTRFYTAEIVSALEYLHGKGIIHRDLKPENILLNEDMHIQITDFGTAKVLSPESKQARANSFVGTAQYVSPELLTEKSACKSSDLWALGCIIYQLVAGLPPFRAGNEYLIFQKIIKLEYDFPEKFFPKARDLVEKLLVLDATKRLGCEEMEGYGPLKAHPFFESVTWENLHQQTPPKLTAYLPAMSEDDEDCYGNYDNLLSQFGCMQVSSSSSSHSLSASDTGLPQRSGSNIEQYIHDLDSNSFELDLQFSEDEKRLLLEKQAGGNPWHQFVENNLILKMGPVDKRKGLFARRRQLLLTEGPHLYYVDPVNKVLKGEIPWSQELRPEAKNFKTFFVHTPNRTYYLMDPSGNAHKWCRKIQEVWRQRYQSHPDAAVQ

For assay [8], the target named is Non-receptor tyrosine-protein kinase TYK2 (Homo sapiens, UniProt P29597).
Chain of Non-receptor tyrosine-protein kinase TYK2 (P29597 whole entry, canonical isoform): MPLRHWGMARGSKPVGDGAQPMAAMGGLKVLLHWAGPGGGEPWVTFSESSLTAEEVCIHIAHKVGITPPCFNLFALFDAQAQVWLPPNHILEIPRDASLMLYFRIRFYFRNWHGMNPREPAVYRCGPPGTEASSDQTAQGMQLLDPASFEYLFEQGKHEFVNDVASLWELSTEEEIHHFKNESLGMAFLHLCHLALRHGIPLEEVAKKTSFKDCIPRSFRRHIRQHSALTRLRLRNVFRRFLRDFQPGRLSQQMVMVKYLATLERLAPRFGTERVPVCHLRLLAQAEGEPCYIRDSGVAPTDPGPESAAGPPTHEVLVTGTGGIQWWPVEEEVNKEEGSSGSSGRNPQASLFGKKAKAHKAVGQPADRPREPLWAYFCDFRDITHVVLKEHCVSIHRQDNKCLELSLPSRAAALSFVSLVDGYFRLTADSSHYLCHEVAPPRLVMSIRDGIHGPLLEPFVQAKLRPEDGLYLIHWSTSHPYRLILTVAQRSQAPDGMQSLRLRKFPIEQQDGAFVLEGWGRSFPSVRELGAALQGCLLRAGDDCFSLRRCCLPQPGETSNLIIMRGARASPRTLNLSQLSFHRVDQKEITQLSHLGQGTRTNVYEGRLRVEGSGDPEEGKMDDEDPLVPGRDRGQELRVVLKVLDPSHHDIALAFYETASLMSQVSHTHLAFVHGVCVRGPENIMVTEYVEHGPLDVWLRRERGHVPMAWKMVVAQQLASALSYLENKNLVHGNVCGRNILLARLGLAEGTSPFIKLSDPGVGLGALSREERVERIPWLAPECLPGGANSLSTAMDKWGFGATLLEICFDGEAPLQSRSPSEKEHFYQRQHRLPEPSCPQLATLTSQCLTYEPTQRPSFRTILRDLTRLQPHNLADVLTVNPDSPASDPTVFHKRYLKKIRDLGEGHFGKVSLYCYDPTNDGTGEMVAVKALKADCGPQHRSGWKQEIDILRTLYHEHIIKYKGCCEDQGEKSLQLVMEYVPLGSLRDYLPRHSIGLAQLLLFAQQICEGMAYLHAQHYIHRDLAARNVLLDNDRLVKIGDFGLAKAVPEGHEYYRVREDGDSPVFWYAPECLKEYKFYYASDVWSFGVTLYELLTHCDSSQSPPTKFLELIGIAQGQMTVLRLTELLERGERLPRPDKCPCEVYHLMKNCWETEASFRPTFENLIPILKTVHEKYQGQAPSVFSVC
Assay [9] addresses Casein kinase I isoform delta (Homo sapiens, UniProt P48730).
In assay [10] the target is T3, Mitogen-activated protein kinase kinase kinase kinase 2 (Homo sapiens, UniProt Q12851).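 Also: measured as one member of a kinome-wide kinase panel, with MAP4K2 as the panel entry.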
T3 sequence (Q12851 whole entry): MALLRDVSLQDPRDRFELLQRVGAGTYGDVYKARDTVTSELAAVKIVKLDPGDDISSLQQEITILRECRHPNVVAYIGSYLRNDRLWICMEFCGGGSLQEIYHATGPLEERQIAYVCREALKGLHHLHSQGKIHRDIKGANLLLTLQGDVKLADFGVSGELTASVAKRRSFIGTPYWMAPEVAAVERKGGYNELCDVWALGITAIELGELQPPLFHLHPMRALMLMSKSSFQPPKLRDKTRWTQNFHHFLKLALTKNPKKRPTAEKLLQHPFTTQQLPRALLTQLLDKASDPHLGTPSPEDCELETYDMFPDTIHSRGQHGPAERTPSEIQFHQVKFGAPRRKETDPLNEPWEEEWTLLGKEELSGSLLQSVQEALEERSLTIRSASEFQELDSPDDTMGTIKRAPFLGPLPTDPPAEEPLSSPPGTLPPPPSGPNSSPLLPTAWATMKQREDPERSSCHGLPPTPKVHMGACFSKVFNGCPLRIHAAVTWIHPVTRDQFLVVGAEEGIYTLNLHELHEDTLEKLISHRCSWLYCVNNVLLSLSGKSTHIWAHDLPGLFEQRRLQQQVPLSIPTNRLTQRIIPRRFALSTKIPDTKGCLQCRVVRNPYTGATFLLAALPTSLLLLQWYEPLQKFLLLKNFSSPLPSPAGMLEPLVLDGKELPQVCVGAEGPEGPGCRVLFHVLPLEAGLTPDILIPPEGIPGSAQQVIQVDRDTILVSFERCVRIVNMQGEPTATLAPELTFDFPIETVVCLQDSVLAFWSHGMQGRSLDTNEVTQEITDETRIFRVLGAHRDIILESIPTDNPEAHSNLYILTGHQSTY

Active and inactive are the calls of the source.

Chain of Casein kinase I isoform delta (P48730 whole entry, canonical isoform): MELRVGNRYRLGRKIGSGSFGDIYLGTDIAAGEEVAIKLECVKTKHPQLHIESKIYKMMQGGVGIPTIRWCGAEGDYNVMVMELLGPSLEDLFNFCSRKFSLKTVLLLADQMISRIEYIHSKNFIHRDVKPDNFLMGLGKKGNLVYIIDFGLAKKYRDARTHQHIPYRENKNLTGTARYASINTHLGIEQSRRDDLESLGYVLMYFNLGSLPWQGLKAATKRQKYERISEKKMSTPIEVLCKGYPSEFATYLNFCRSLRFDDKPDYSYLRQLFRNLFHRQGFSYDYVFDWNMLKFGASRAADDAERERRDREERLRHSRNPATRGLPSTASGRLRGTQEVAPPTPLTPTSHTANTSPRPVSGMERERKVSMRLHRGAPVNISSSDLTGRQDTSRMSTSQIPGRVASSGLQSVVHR

With `Cc1ccc(-n2nc(C(C)(C)C)cc2NC(=O)Nc2ccc(OCCN3CCOCC3)c3ccccc23)cc1` [DORAMAPIMOD], the Ki was > 7940 nM (inactive) in [1]; > 2000 nM (inactive) in [2]; > 3980 nM (inactive) in assay [3]; > 5010 nM (inactive) in assay [4]; > 5010 nM (inactive) in assay [5]; > 2000 nM (inactive) in [6]. Also, the Ki in [7] was > 3980 nM (inactive); in assay [8], > 2000 nM (inactive); in assay [9] it was > 7940 nM (inactive); in assay [10] it was > 2510 nM (inactive).

`NC(COc1cncc(-c2ccc3c(c2)C(=Cc2ccco2)C(=O)N3)c1)Cc1c[nH]c2ccccc12` (configuration not stated): the Ki in assay [1] is 1260 nM (active); in [2], 2.51 nM (active); in [3] it was 200 nM (active); in assay [4], 200 nM (active); in [5], 39.8 nM (active); in [6] it was 12.6 nM (active). Further, the inhibition constant Ki in [7] is 50.1 nM (active); in [8], > 2000 nM (inactive); in [9] it was 398 nM (active); in assay [10] it was 39.8 nM (active).

Regarding `NC(=O)c1cc(-c2ccnc(N)n2)[nH]c1-c1ccc(Cl)cc1Cl`, the Ki in [1] was > 3980 nM (inactive); in assay [2], 0.794 nM (active); in assay [3], 501 nM (active); in [4], 631 nM (active); in [5], 501 nM (active); in assay [6] it was 398 nM (active). Besides, the Ki is > 3980 nM (inactive) in assay [7], 794 nM (active) in assay [8], 15.8 nM (active) in assay [9] and 200 nM (active) in assay [10]. Also, the negative-log Ki (pKi) in assay [2] is 9.1; in assay [3], 6.3; in [4] it was 6.2; in [5] it was 6.3; in assay [6], 6.4; in [9], 7.8. The compound further had a pKi in assay [10] of 6.7.
